Assay [1] has as its target T1, ΔF508-CFTR (Homo sapiens, UniProt P13569, DEL508-508).
T1 construct: host or cells: CFBE41o-, doxycycline-inducible
The assay can be described thus: CFTR cell surface levels using HRP-tagged ΔF508-CFTR expressing CFBE cells, in the presence of a co-corrector. The format is cell-based. The method, boiled down:
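Cells were seeded with 0.5 μg/mL doxycycline and held 68 h at 37 °C. Test compounds plus 3 μM co-corrector (final 0.1% DMSO) were then added for 20 h at 33 °C. Washed cells received HRP substrate, and luminescence was normalized between DMSO and 3 μM co-corrector controls.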

Assay [2] concerns the target T1, ΔF508-CFTR. The assay can be described thus: CFTR cell surface levels using HRP-tagged ΔF508-CFTR expressing CFBE cells, intrinsic corrector capacity. The format is cell-based. The method, boiled down:
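Here the cells express ΔF508-CFTR with horseradish peroxidase inserted in extracellular loop 4, so only rescued channel at the surface gives luminescent signal. Compounds act on their own, 20 h at the reduced temperature of 33 °C; values are percent activity relative to DMSO and a 3 μM corrector.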

Where [3] appears, read: HRP-tagged ΔF508-CFTR expressing CFBE cells, in the presence of 3 μM co-corrector.
The mark [4] stands for this setting: HRP-tagged ΔF508-CFTR expressing CFBE cells, intrinsic corrector capacity (no co-corrector), 33° C., 20 hours.
Where [5] appears, read: HRP-tagged ΔF508-CFTR expressing CFBE cells, in the presence of 3 μM co-corrector, read-out: EC50.
[6] abbreviates: HRP-tagged ΔF508-CFTR CFBE41o- cells, compounds alone (intrinsic corrector capacity), 20 hours at 33° C., positive control 3 μM corrector.
Setting [7] is: HRP-tagged ΔF508-CFTR CFBE41o- cells, compounds alone (intrinsic corrector capacity), 20 hours at 33° C., read-out: EC50.
Setting [8] is: HRP-tagged ΔF508-CFTR expressing CFBE cells, intrinsic corrector capacity (no co-corrector), 33° C., 20 hours, read-out: EC50.
The mark [9] stands for this setting: HRP-tagged ΔF508-CFTR CFBE cells, compound alone (intrinsic corrector capacity), 20 hours at 33° C.
Where [10] appears, read: HRP-tagged ΔF508-CFTR CFBE cells, compound alone (intrinsic corrector capacity), 20 hours at 33° C., read-out: EC50.

pEC50: −log10 of the molar value.

T1 sequence (P13569 with tags, fused parts or gaps DEL508-508): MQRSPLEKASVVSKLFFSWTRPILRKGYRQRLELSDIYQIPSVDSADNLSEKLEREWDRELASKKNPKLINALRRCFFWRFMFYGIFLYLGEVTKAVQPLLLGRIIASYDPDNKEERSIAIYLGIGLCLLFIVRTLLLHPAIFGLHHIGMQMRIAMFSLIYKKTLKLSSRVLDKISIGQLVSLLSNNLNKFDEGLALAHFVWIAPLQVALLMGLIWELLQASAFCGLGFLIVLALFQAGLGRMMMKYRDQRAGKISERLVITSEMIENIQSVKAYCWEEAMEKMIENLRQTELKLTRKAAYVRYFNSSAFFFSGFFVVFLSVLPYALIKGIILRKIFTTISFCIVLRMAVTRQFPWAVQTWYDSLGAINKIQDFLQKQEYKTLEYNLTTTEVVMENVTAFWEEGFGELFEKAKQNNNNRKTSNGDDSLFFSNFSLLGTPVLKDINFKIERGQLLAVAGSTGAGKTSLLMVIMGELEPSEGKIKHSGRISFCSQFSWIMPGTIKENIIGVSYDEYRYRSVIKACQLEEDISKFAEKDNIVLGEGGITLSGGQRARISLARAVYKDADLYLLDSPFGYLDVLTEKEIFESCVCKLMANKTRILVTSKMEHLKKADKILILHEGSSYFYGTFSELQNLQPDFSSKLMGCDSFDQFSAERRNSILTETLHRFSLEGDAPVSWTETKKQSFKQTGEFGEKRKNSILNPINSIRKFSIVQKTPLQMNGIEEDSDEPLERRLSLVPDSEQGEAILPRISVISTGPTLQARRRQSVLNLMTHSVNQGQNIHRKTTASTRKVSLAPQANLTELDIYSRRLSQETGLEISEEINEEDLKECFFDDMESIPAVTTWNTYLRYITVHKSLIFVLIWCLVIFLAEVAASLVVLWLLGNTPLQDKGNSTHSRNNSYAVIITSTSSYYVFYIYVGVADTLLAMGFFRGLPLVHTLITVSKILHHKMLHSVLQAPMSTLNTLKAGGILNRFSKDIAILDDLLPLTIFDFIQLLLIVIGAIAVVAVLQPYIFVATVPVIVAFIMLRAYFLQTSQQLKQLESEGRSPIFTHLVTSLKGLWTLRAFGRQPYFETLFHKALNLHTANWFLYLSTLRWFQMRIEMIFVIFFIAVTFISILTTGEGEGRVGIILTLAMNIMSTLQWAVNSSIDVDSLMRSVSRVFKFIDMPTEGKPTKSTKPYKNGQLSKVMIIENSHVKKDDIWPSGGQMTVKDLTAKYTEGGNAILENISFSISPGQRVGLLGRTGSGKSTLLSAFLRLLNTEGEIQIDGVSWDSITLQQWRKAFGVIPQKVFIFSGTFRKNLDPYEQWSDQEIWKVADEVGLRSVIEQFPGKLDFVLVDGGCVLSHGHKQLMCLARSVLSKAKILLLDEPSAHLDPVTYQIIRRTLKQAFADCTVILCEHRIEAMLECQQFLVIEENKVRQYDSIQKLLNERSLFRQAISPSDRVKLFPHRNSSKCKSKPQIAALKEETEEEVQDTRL

The term pEC50 denotes −log10 of the EC50, conventionally taken in molar units. `O=C(O)c1cc(N2CCC(N3CCOCC3)CC2)c2c(C3CCC3)nn(-c3ccccc3)c2n1` [compound 560, 3-cyclobutyl-4-[4-(morpholin-4-yl)piperidin-1-yl]-1-phenyl-1H-pyrazolo[3,4-b]pyridine-6-carboxylic acid]: the pEC50 in assay [1] was 6.77; in assay [2], 6.41. The figures for the “% Activation” value in assay [1] (setting [3]) and in assay [2] (setting [4]) were 437.33% and 265.05%, respectively.
On to `N#CC1CCN(c2ccc(-c3cc(C(=O)O)nc4c3c(C3CCC3)nn4C3CCCCC3)cn2)CC1` [compound 220, 4-[6-(4-cyanopiperidin-1-yl)pyridin-3-yl]-3-cyclobutyl-1-cyclohexyl-1H-pyrazolo[3,4-b]pyridine-6-carboxylic acid], for which the “% Activation” value in assay [1] (setting [3]) stood at 470.77%; in assay [2] (setting [6]), 245.37%. Further, the pEC50 in assay [1] (setting [5]) is 6.43; in assay [2] (setting [7]), 6.10.
For `COC1CCN(C2CCN(c3cc(C(=O)O)nc4c3c(C3CCC3)nn4-c3ccc(F)cc3)CC2)CC1` [compound 892, 3-cyclobutyl-1-(4-fluorophenyl)-4-(4-methoxy[1,4′-bipiperidin]-1′-yl)-1H-pyrazolo[3,4-b]pyridine-6-carboxylic acid], the “% Activation” value came to 428.72% in assay [1] (setting [3]) and 196.44% in assay [2] (setting [4]). The pEC50 in assay [1] (setting [5]) and in assay [2] (setting [8]) was 6.22 each time.
With `O=C(O)c1cc(N2CCC3(CC2)CCN(C2CC2)CC3)c2c(C3CCC3)nn(-c3ccc(F)cc3)c2n1` [compound 887, 3-cyclobutyl-4-(9-cyclopropyl-3,9-diazaspiro[5.5]undecan-3-yl)-1-(4-fluorophenyl)-1H-pyrazolo[3,4-b]pyridine-6-carboxylic acid], the “% Activation” value in assay [1] (setting [3]) is 375.13%; in assay [2] (setting [4]) it was 191.35%. Moreover, the pEC50 was 6.69 in assay [1] (setting [5]) and 6.44 in assay [2] (setting [8]).
For `O=C(O)c1cc(N2CCC(N3CCC(F)CC3)CC2)c2c(C3CCC3)nn(-c3ccc(F)cc3)c2n1` [compound 849, 3-cyclobutyl-4-(4-fluoro[1,4′-bipiperidin]-1′-yl)-1-(4-fluorophenyl)-1H-pyrazolo[3,4-b]pyridine-6-carboxylic acid] the same measures were 458.6%, 249.1%, 6.64 and 6.18.
For `CC(C)OC(=O)N1CC[C@@H]2CN(c3cc(C(=O)O)nc4c3c(C3CCC3)nn4-c3ccccc3)CC[C@@H]21` (racemic) [compound 610, rac-3-cyclobutyl-1-phenyl-4-[(3aR,7aS)-1-{[(propan-2-yl)oxy]carbonyl}octahydro-5H-pyrrolo[3,2-c]pyridin-5-yl]-1H-pyrazolo[3,4-b]pyridine-6-carboxylic acid], the entries for the “% Activation” value in assay [1] (setting [3]) and in assay [2] (setting [4]) were 539.05% and 262.4%, respectively. Also, the negative-log EC50 (pEC50) was 7.35 in assay [1] (setting [5]) and 6.91 in assay [2] (setting [8]).
On to `O=C(O)c1cc(N2CCC(N3CCCCC3)CC2)c2c(C3CCC3)nn(-c3ccccc3)c2n1` [compound 576, 4-([1,4′-bipiperidin]-1′-yl)-3-cyclobutyl-1-phenyl-1H-pyrazolo[3,4-b]pyridine-6-carboxylic acid], for which the pEC50 in assay [1] is 6.40; in assay [2], 6.30. In addition, the “% Activation” value in assay [1] (setting [3]) amounted to 390.78%; in assay [2] (setting [4]), 175.2%.
`COC1CCN(c2cc(C(=O)O)nc3c2c(C(C)C)nn3-c2cccc(C)c2)CC1` [compound 192, 4-(4-methoxypiperidin-1-yl)-1-(3-methylphenyl)-3-(propan-2-yl)-1H-pyrazolo[3,4-b]pyridine-6-carboxylic acid]: the “% Activation” value worked out at 439.45% in assay [1] (setting [3]) and 276.92% in assay [2] (setting [6]). Further, the pEC50 was 6.56 in assay [1] (setting [5]) and 6.37 in assay [2] (setting [7]).
For `CC(C)c1nn(-c2cccc(N3CCC3)c2)c2nc(C(=O)O)cc(-c3ccc(N4CCOCC4)cc3)c12` [compound 151, 1-[3-(azetidin-1-yl)phenyl]-4-[4-(morpholin-4-yl)phenyl]-3-(propan-2-yl)-1H-pyrazolo[3,4-b]pyridine-6-carboxylic acid] the same measures were 562.6%, 322.03%, 6.19 and 6.45.
For `COCCC1CCN(c2cc(C(=O)O)nc3c2c(C(C)C)nn3-c2cccc(C)c2)CC1` [compound 228, 4-[4-(2-methoxyethyl)piperidin-1-yl]-1-(3-methylphenyl)-3-(propan-2-yl)-1H-pyrazolo[3,4-b]pyridine-6-carboxylic acid] the same measures were 475.1%, 297.15%, 6.40 and 6.17.
As for `CC(C)Oc1nn(C2CCCCC2)c2nc(C(=O)O)cc(-c3ccc(CN4CC(N(C)C)C4)cc3)c12` [compound 927, 1-cyclohexyl-4-(4-{[3-(dimethylamino)azetidin-1-yl]methyl}phenyl)-3-[(propan-2-yl)oxy]-1H-pyrazolo[3,4-b]pyridine-6-carboxylic acid], the “% Activation” value in assay [1] (setting [3]) was found to be 362.92%; in assay [2] (setting [9]), 150.78%. Moreover, the values for the pEC50 in assay [1] (setting [5]) and in assay [2] (setting [10]) were 5.96 and 5.90, respectively.
`CC(C)c1nn(-c2ccnc(N3CCOCC3)c2)c2nc(C(=O)O)cc(-c3ccc(N4CCOCC4)cc3)c12` [compound 201, 4-[4-(morpholin-4-yl)phenyl]-1-[2-(morpholin-4-yl)pyridin-4-yl]-3-(propan-2-yl)-1H-pyrazolo[3,4-b]pyridine-6-carboxylic acid]: the “% Activation” value in assay [1] (setting [3]) is on record as 439.85%; in assay [2] (setting [6]), 251.3%. Besides, the figures for the pEC50 in assay [1] (setting [5]) and in assay [2] (setting [7]) were 6.54 and 6.22, respectively.
`CC(F)(F)c1cccc(-n2nc(C3CCC3)c3c(N4CCC(N5CCOCC5)CC4)cc(C(=O)O)nc32)c1` [compound 915]: the “% Activation” value in assay [1] (setting [3]) was found to be 587.95%; in assay [2] (setting [9]), 386.2%. Also, the pEC50 in assay [1] (setting [5]) is 7.30; in assay [2] (setting [10]), 6.40.
`O=C(O)c1cc(N2CCC(N3CCN(C4CC4)CC3)CC2)c2c(C3CCC3)nn(-c3ccccc3)c2n1` [compound 738, 3-cyclobutyl-4-[4-(4-cyclopropylpiperazin-1-yl)piperidin-1-yl]-1-phenyl-1H-pyrazolo[3,4-b]pyridine-6-carboxylic acid]: the “% Activation” value in assay [1] (setting [3]) is reported as 472.1%; in assay [2] (setting [4]), 267.6%. Also, the pEC50 is 6.96 in assay [1] (setting [5]) and 6.61 in assay [2] (setting [8]).
On to `Cc1cccc(-n2nc(C(C)C)c3c(N4CCC(C#N)CC4)cc(C(=O)O)nc32)c1` [compound 191, 4-(4-cyanopiperidin-1-yl)-1-(3-methylphenyl)-3-(propan-2-yl)-1H-pyrazolo[3,4-b]pyridine-6-carboxylic acid], for which the “% Activation” value in assay [1] (setting [3]) is recorded as 375.1%; in assay [2] (setting [6]) it was 208.12%. Moreover, the pEC50 in assay [1] (setting [5]) was 6.32; in assay [2] (setting [7]) it was 6.00.
With `CC1CCN(CCC2CCN(c3cc(C(=O)O)nc4c3c(C3CCC3)nn4-c3ccccc3)CC2)CC1` [compound 687, 3-cyclobutyl-4-{4-[2-(4-methylpiperidin-1-yl)ethyl]piperidin-1-yl}-1-phenyl-1H-pyrazolo[3,4-b]pyridine-6-carboxylic acid], the “% Activation” value in assay [1] (setting [3]) came to 454%; in assay [2] (setting [4]), 264.95%. Moreover, the figures for the negative-log EC50 (pEC50) in assay [1] (setting [5]) and in assay [2] (setting [8]) were 7.05 and 6.77, respectively.

These data come from US9796711B2, “Substituted pyrazolo[3,4-b]pyridin-6-carboxylic acids and method of use” (AbbVie S.àr.l., priority 2015, dated 2017).
